# Experimental data taken from patent publication US20040081682A1, “Transdermal system (tds) that contain inhibitors of phosphodiesterase lV” (priority 2000, published 2004).
# Assay: Pharmacokinetic study of humans (transdermal TDS E vs. intravenous infusion, serum RIA)
# Details: human, in vivo
# Experimental: Pharmacokinetic Study of Humans
# The above-described formulation E was tested on twelve healthy males at the age of 20 to 42 years with normal body weight, whereby for 72 hours in each case, three transdermal formulations of 10 cm^2 each with 5 mg of (R)-(−)-5-(4-methoxyphenyl-3-propoxy)-5-methyl-2-oxazolidinone were simultaneously applied on the lower back area. After 72 hours, the transdermal formulation was removed and within one week of washing-out time, the concentration of the active ingredient in the serum was determined per RIA. The measured serum levels of the active ingredient produced an average transdermal substance flow of 0.49±0.7 μg/cm^2/h, at maximum serum levels of 0.88 ng/ml in the time interval of 29±10 hours.
# Based on the pronounced plateau phase, which was achieved after the administration of the TDS, at the time of the reduction of TDS after three days, it was still possible to measure mesopram concentrations in the range of 65±18% of the maximum levels. […] The AUC values as well as other pharmacokinetic parameters are found in Table 3. In a comparison test with intravenous administration of a total of 0.2 mg of (R)-(−)-5-(4-methoxyphenyl-3-propoxy)-5-methyl-2-oxazolidinone within one hour, a multiple of higher serum levels was measured that was […]. One hour after the infusion was completed, the mean serum levels dropped to 1.15±0.44 ng·ml·l. Later on, the serum levels dropped off four hours after completion of the infusion to achieve a level of 0.39±0.17 ng·ml·l, after 8 hours 0.17±0.09 ng·ml·l, and after 24 hours 0.08±0.08 ng·ml·l. The essential pharmacokinetic parameters after i.v. administration of mesopram are depicted in Tab. 3. The comparison test with infusion was performed on the same test subjects as the transdermal administration. […]
substance,measurement,value
(R)-(−)-5-(4-methoxyphenyl-3-propoxy)-5-methyl-2-oxazolidinone [mesopram],Cl (clearance),5.1 ± 1.8
same,f (absolute bioavailability),100%
same,ιη (half-life),2.5 ± 0.9 h
